Test results as given in patent publication US20230172899A1, “CANNABINOID COMPOSITIONS” (priority 2020, published 2023).
≈ marks a conversion by molar mass, not a printed value. Where two headings read alike, the source gives them in different places.

What was measured:
[1] = tested on: store-operated calcium entry (SOCE) in U937 monocytes; assay: SOCE inhibition, Fura-2 Ca2+ bioassay, thapsigargin-induced, U937 cells; type: cell-based, human; conditions: Homo sapiens
[2] = tested on: store-operated calcium entry (SOCE) in Luva human mast cells; assay: SOCE inhibition, Fura-2 Ca2+ bioassay, thapsigargin-induced, Luva cells; type: cell-based; conditions: Homo sapiens, Mast cell, read-out: IC50 SOCE Luva
[3] = tested on: store-operated calcium entry (SOCE) in HEK293 cells; assay: SOCE inhibition, Fura-2 Ca2+ bioassay, thapsigargin-induced, HEK293 cells; type: cell-based, human; conditions: for IC50: Homo sapiens
[4] = tested on: store-operated calcium entry (SOCE) in Jurkat T cells; assay: SOCE inhibition, Fura-2 Ca2+ bioassay, thapsigargin-induced, Jurkat cells; type: cell-based, human; conditions: for IC50: Homo sapiens, Jurkat; for IC50 on SOCE relative to acidic variations: dose response 0 to 30 μM; for Combinatory effect on SOCE inhibition when paired with CBGA: isobolographic analysis, pairs expected to inhibit 50%
[5] = tested on: store-operated calcium entry (SOCE) in RBL-2H3 rat mast cells; assay: SOCE inhibition, Fura-2 Ca2+ bioassay, thapsigargin-induced, RBL-2H3 cells; type: cell-based; conditions: Rattus norvegicus
[6] = tested on: store-operated calcium entry (SOCE) in THP-1 cells; assay: SOCE inhibition, combinatory (isobolographic) analysis, THP-1 cells; type: cell-based, human; conditions: 10 μM cannabinoid plus 2.2 μM CBGA
[7] = tested on: store-operated calcium entry (SOCE) in THP-1 cells; assay: as above; type: cell-based, human; conditions: for IC50: Homo sapiens, THP-1, read-out: SOCE IC50; for Combinatory effect on SOCE inhibition when paired with CBGA: THP-1 cells, isobolographic analysis, pairs expected to inhibit 50%
Protocol: Bar graphs shown in FIGS. 10A-10Z and 10BB display SOCE amplitudes calculated from area under the curve (AUC) of the SOCE signals and normalized to SOCE in the presence of gadolinium. Combinatory effects were assessed using an isobolographic analysis approach, where CBGA was paired with another cannabinoid using concentrations of CBGA corresponding to 50%, 40%, 30%, 20%, 10%, and 0% inhibition (as derived from the IC50 curves of FIGS. 9A-9P) and combined with concentrations of the paired cannabinoid, so that each combination would be expected to inhibit 50% of the Ca^2+ signal (e.g., the CBGA concentration causing 50% inhibition was tested alone without the other cannabinoid, the CBGA concentration expected to block 40% of the signal was combined with the concentration of the other cannabinoid expected to inhibit 10%, the CBGA concentration expected to block 30% of the signal was combined with the concentration of the other cannabinoid expected to inhibit 20%, and so on). Simple additivity of cannabinoid pairs would be expected to inhibit the Ca^2+ signal by 50%. All the data in these experiments represent an average of 3 independent runs and the values are graphed as mean values±SEM.

TRPM7 [8] = molecular target: T1, TRPM7 (Homo sapiens, UniProt Q96QT4); assay: Whole-cell patch clamp of TRPM7 over-expressed in HEK293 cells; type: cell-based; set-up: expressed in transfected cells; host or cells: HEK293; conditions: HEK293 over-expressing TRPM7; 1, 3, 10 or 30 μM; +40 mV; 0 ATP, 0 Mg2+
Protocol: Activation of TRPM7 over-expressed in HEK293 cells by perfusing the cells with intracellular solution containing 0 ATP and 0 Mg^2+, resulting in fast and maximal activation of TRPM7 outward currents at +40 mV is shown in FIG. 14.
Data from dose-response curves for the inhibition of TRPM7 currents (dark gray symbols) obtained in experiments shown in FIG. 14 and SOCE-mediated increases in intracellular Ca^2+ (light gray symbols) are shown in FIG. 15.
Target sequence in this assay (Q96QT4 whole entry, species assumed): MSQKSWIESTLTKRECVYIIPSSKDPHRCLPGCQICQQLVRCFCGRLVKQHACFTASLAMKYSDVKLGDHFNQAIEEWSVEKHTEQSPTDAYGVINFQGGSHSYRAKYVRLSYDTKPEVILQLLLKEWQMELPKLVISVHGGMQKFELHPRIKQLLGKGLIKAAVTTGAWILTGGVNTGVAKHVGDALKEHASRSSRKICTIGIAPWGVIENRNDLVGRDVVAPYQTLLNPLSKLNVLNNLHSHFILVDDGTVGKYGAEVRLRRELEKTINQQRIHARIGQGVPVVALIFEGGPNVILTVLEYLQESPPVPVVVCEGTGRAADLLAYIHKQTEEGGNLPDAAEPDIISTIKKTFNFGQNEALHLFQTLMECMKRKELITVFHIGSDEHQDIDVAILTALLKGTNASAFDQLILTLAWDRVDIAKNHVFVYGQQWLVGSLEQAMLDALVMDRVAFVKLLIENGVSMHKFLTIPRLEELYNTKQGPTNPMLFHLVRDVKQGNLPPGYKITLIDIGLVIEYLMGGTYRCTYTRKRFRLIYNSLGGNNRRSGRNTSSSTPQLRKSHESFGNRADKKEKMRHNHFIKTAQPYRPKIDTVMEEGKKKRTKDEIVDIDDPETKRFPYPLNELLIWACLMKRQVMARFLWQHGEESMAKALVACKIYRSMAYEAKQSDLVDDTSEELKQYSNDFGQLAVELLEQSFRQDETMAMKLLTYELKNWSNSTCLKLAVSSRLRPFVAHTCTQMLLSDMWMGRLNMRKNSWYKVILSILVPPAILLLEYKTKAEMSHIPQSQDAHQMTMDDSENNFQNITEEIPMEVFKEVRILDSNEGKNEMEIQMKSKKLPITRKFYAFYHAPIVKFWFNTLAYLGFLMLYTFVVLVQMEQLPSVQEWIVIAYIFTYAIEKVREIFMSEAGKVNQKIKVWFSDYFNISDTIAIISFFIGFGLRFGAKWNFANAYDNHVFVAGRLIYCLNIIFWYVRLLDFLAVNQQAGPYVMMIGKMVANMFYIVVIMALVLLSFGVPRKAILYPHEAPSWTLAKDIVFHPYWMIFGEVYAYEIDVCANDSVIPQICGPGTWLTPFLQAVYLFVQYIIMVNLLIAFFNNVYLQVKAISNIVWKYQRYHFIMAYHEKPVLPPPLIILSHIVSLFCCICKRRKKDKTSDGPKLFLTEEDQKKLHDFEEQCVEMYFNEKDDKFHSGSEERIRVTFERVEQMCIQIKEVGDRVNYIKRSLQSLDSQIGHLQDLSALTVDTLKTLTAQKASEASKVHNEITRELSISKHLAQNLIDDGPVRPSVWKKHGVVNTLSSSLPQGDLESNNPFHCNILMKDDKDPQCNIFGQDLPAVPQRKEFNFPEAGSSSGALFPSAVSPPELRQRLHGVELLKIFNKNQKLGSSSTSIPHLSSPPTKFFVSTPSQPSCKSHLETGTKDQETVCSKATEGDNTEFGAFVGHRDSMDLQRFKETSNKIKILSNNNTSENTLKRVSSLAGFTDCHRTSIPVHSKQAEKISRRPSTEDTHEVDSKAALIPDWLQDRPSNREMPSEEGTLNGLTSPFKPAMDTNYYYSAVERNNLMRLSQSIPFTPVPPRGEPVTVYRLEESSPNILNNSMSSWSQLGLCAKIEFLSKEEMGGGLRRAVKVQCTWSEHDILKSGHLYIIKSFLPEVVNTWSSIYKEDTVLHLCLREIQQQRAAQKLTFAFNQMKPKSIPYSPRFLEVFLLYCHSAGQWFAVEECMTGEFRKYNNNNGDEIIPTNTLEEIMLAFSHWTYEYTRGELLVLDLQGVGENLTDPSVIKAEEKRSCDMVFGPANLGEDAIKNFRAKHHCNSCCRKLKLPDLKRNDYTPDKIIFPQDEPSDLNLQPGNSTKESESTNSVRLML

TRPM7 [9] = molecular target: T1, TRPM7; assay: Whole-cell patch clamp of TRPM7 outward current in Jurkat cells; type: cell-based; set-up: endogenous in cells; host or cells: Jurkat; conditions: 10 μM, +40 mV, removal of intracellular ATP
Protocol: (§1) Inward CRAC currents were induced at −120 mV (gray trace) and outward currents at +40 mV (black trace, where CRAC currents reverse and are essentially absent). At the +40 mV voltage potential, TRPM7 channels produce monovalent outward currents. Perfusion of 50 μM IP3 activates ICRAC at −120 mV as above and the removal of intracellular ATP slowly activates TRPM7 current at +40 mV. Application of 10 μM CBGA blocks both outward TRPM7 and inward CRAC currents (see FIG. 13, black and gray traces, respectively). Without being bound by theory, CBGA may also block TRPM7's kinase activity, similar to other TRPM7 blockers such as NS8593.
Target sequence in this assay (Q96QT4 whole entry): as the sequence (Q96QT4 whole entry, species assumed) above

CRAC channels (ICRAC) = assay: Whole-cell patch clamp of IP3-induced ICRAC in Jurkat cells; type: cell-based, human; conditions: 10 μM, 50 μM IP3, −120 mV
Protocol: The ability of CBGA to inhibit store-operated calcium entry (SOCE) within cells was experimentally interrogated (see FIG. 12). Jurkat cells were perfused with 50 μM IP3 to induce store depletion and activation of CRAC channels (the resulting Ca^2+ inward current is known as ICRAC). ICRAC is a long-lasting inward current at −120 mV membrane potential (black trace) that can be blocked by 10 μM CBGA (gray trace).
as §1

[10] = tested on: store-operated calcium entry (SOCE) in various cell types; assay: Thapsigargin-induced SOCE Fura-2 bioassay across various cell types; type: cell-based; conditions: 1 μM; positive control; Jurkat, U937, Luva, RBL-2H3, HL-60, HEK-293
Protocol: A Fura-2 calcium flux assay was used to determine cytoplasmic Ca^2+ levels. Briefly, cells were preloaded with Fura-2 AM, and fluorescence intensity in cells intensity was measured over time as a ratio of detected 510 nm fluorescent light emission intensity when excited by UV light at 340 nm and 380 nm wavelengths (f340/f380 ratio). Gadolinium (Gd^3+) is known to block SOCE at a concentration of 1 μM and was used at 1 μM as a positive control in these experiments (gray line).
FIGS. 11TT-11-XX show dose-response curves for hemp varieties on store-operated calcium entry (SOCE) induced by thapsigargin in HEK-293, Jurkat, U937, LUVA, and RBL-2H3 cells. Hemp extracts (cold extracted and unheated) were tested at 6 different doses from 1 to 50 μg/ml. The effects on SOCE amplitude were plotted in a dose-dependent manner to determine the IC50 for each tested compound (see Table 6 for determined IC50 values). All data are averages of three independent runs±SEM. Tested hemp varieties were: Otto-18, Harlequin (HAR), and BOAX.
The general extraction method of Example 6 was carried out, and hemp extracts were subjected to heat treatment prior to testing for activity in the SOCE assay. In some instances, unheated and heated hemp extracts were combined prior to activity testing in the SOCE assay.

[11] = U-937, read-out: IC50 SOCE U937
[12] = HEK293, read-out: IC50 SOCE HEK-293, Table 5, individual cannabinoids, HEK-293
[13] = RBL-2H3, read-out: IC50 SOCE RBL-2H3, Table 5, individual cannabinoids, RBL-2H3
[14] = U-937, read-out: IC50 SOCE U937, Table 5, individual cannabinoids, U937
[15] = read-out: IC50 SOCE Jurkat, Table 5, individual cannabinoids

| SMILES | IC50 [2] [µg/mL] | IC50 [3, 12] [µg/mL] | Combinatory effect on SOCE inhibition when paired with CBGA ([4]; Jurkat cells) | IC50 [5, 13] [µg/mL] | Combinatory effect when paired with 2.2 μM CBGA [6] | IC50 [7] [µM] | IC50 [1, 14] [µg/mL] | IC50 [4, 15] [µg/mL] | also measured |
| --- | --- | --- | --- | --- | --- | --- | --- | --- | --- |
| C=C(C)[C@@H]1CCC(C)=C[C@H]1c1c(O)cc(CCCCC)cc1O [CBD, (1′R,2′R)-5′-methyl-4-pentyl-2′-(prop-1-en-2-yl)-1′,2′,3′,4′-tetrahydro-[1,1′-biphenyl]-2,6-diol] | > 50 | > 50 | Simple additive behavior | 2.53 (≈ 8.05 µM) | sub-additive | > 30 |  |  | IC50 [1, 11]: > 50 µg/mL; IC50 ([4]; read-out: IC50 SOCE Jurkat): 7.42 µg/mL; Effect on SOCE (Ca2+ signals), pure compounds ([4]; Jurkat cells, compounds at 10 μM, 1 μM thapsigargin): low to no effects; IC50 on SOCE relative to acidic variations ([4]; Jurkat cells): higher IC50 than their acidic variations |
| CCCCCc1cc(O)c(C/C=C(\C)CCC=C(C)C)c(O)c1 [CBG, (E)-2-(3,7-dimethylocta-2,6-dien-1-yl)-5-pentylbenzene-1,3-diol] | 33.6 (≈ 106 µM) | > 50 | stronger than predicted inhibitions | 3.29 (≈ 10.4 µM) | simple additive agonists | > 30 | 33.5 (≈ 106 µM) | 2.36 | IC50 on SOCE relative to acidic variations ([4]; Jurkat cells): higher IC50 than their acidic variations |
| CCCCCc1cc(O)c(C/C=C(\C)CCC=C(C)C)c(O)c1C(=O)O [CBGA, (E)-3-(3,7-dimethylocta-2,6-dien-1-yl)-2,4-dihydroxy-6-pentylbenzoic acid] | 2.21 (≈ 6.13 µM) | 5.72 (≈ 15.9 µM) |  | 0.27 (≈ 0.749 µM) |  | ~2.2 | 2.23 (≈ 6.19 µM) | 0.53 | Block of TRPM7 current (TRPM7 [8]): dose-dependent block; Block of outward TRPM7 current (TRPM7 [9]): blocks; Inhibitory effect in immune cells compared with non-immune HEK293 cells ([3]; Jurkat vs HEK293 screening, 10 μM): more potent; IC50 ([4]; read-out: IC50 inhibition of SOCE-mediated increases in intracellular Ca2+, FIG. 15, cell type not stated there): ~2 µM; Block of inward CRAC current (ICRAC) (CRAC channels (ICRAC)): completely blocks |
| CCCc1cc(O)c(C/C=C(\C)CCC=C(C)C)c(O)c1 [CBGV, (E)-2-(3,7-dimethylocta-2,6-dien-1-yl)-5-propylbenzene-1,3-diol] | 40.7 (≈ 141 µM) |  | stronger than predicted inhibitions |  | simple additive agonists | > 30 |  |  | IC50 [1, 11]: 14.5 µg/mL (≈ 50.3 µM); IC50 ([3]; HEK293, read-out: IC50 SOCE HEK-293): 30.9 µg/mL (≈ 107 µM); IC50 ([4]; read-out: IC50 SOCE Jurkat): 5.27 µg/mL; IC50 ([5]; RBL-2H3, read-out: IC50 SOCE RBL-2H3): 6.46 µg/mL (≈ 22.4 µM) |
| CCCCCc1cc(O)c2c(c1)OC(C)(C)c1ccc(C)cc1-2 [CBN, 6,6,9-trimethyl-3-pentyl-6H-benzo[c]chromen-1-ol] | > 50 | 42.6 (≈ 137 µM) | Simple additive behavior | 33.4 (≈ 108 µM) | simple additive agonists | > 30 | 45.3 (≈ 146 µM) | 9.09 |  |
| [Cl][Gd]([Cl])[Cl] [Gd^3+, Gadolinium Chloride] |  |  |  |  |  |  |  |  | Effect on thapsigargin-induced SOCE (f340/f380 ratio) [10]: inhibited SOCE |
| CCCCCc1cc2c(c(O)c1C(=O)O)[C@@H]1C=C(C)CC[C@H]1C(C)(C)O2 [THCA, (6aR,10aR)-1-hydroxy-6,6,9-trimethyl-3-pentyl-6a,7,8,10a-tetrahydro-6H-benzo[c]chromene-2-carboxylic acid] | 10.4 (≈ 29 µM) | 17.5 (≈ 48.9 µM) | Simple additive behavior | 0.57 (≈ 1.59 µM) |  |  | 8.1 (≈ 22.6 µM) | 2.23 | Combinatory effect on SOCE inhibition when paired with CBGA [7]: sub-additive combinatory effects |
| CCCc1cc2c(c(O)c1C(=O)O)[C@@H]1C=C(C)CC[C@H]1C(C)(C)O2 [THCVA, (6aR,10aR)-1-hydroxy-6,6,9-trimethyl-3-propyl-6a,7,8,10a-tetrahydro-6H-benzo[c]chromene-2-carboxylic acid] | 9.43 (≈ 28.5 µM) | 21.3 (≈ 64.6 µM) | stronger than predicted inhibitions | 20.2 (≈ 61.2 µM) |  |  | 20.2 (≈ 61 µM) | 0.633 | Combinatory effect on SOCE inhibition when paired with CBGA [7]: sub-additive combinatory effects |
| CCCCCc1cc(O)c2c(c1)OC(C)(C)[C@@H]1CC=C(C)C[C@@H]21 [Δ8-THC, (6aR,10aR)-6,6,9-trimethyl-3-pentyl-6a,7,10,10a-tetrahydro-6H-benzo[c]chromen-1-ol] | > 50 | > 50 | inhibit less than predicted | 39.7 (≈ 126 µM) | sub-additive | > 30 | > 50 | 14.2 |  |
